These results are taken from patent US11234967B2, “Use of 3-[5-amino-4-(3-cyanobenzoyl)-pyrazol-1-yl]-n-cyclopropyl-4-methylbenzamide in the prevention or reduction of acute exacerbations of chronic obstructive pulmonary disease” (MEREO BIOPHARMA 1 LIMITED, priority 2017, dated 2022).

The test system of experiment [1] is acute exacerbations of COPD. Put plainly: AETHER Phase 2 trial: occurrence of new acute exacerbations of COPD / re-hospitalisation out to 6 months. The class given is in vivo, human. From the text:
A Phase 2 trial (referred to as […]) was a double-blind, randomised, placebo-controlled clinical study investigating the use of BCT-197, on top of Standard of Care, for the treatment of patients with AECOPD. Standard of Care included the addition of steroids and/or antibiotics to a patient's chronic COPD medication and symptomatic bronchodilators. Following baseline assessment, 282 eligible patients were randomised to receive either one of two different dose regimens of BCT-197 or placebo (three doses over five days). The trial assessed adult patients ≥40 years with an acute exacerbation of COPD (as defined by increase in symptoms of cough, and/or sputum and/or breathlessness that required addition of antibiotics and or systemic corticosteroids to their regular treatment). The dosing regimen of 3-[5-amino-4-(3-cyanobenzoyl)-pyrazol-1-yl]-N-cyclopropyl-4-methylbenzamide or matching oral placebo administered are shown in Table 1. [table] BCT197 or placebo was added on top of the standard of care for the exacerbation. Exploratory long term outcomes after the acute treatment were included out to 6 months. […] Inclusion criteria for the study population were: • Males/females≥40 • On regular treatment for COPD (categories C and D by 2015 GOLD guidelines) • Presence of an active exacerbation of the ongoing COPD requiring hospitalisation for treatment: • At least one moderate or severe COPD exacerbation in the preceding 12 months • Smoking history of at least 10 pack years • FEV1<65% of the predicted normal value Exclusion criteria for the study population were: • Current diagnosis of asthma • Treatment with systemic corticosteroids or antibiotics in the prior 4 weeks. • Requiring intensive care unit treatment • Clinically significant cardiovascular condition of clinically significant ECG abnormality • Concurrent pneumonia, pulmonary embolus or pneumothorax

Experiment [2] has as its system high sensitivity C-Reactive Protein (hsCRP). Put plainly: AETHER Phase 2 trial: hsCRP blood concentration. The class given is in vivo, human. The source says: (§1) A Phase 2 trial (referred to as AETHER) was a double-blind, randomised, placebo-controlled clinical study investigating the use of BCT-197, on top of Standard of Care, for the treatment of patients with AECOPD. Standard of Care included the addition of steroids and/or antibiotics to a patient's chronic COPD medication and symptomatic bronchodilators. Following baseline assessment, 282 eligible patients were randomised to receive either one of two different dose regimens of BCT-197 or placebo (three doses over five days).
Inflammatory biomarkers are related to disease outcomes (Barnes and Celli, Eur Respir J, 2009, 33, pp 1165-1185; Bourdin et al., Eur Respir Rev, 2009, 18, pp 198-212) and are central to the proposed mechanism of action for BCT197. A further exploratory outcome was included out to 6 months, namely the inflammatory biomarker high sensitivity C-Reactive Protein (hsCRP) measured in patients. […] This is supportive that treatment in accordance with the invention leads to a reduction in re-hospitalisations and non-hospitalised exacerbations over this period through long term reduction in inflammation.
After the acute treatment period, the hsCRP remains lower in those who had received BCT197 compared to placebo to Day 180 (p value<0.05) without additional dosing of BCT197, supporting a prolonged pharmacology effect on inflammation by BCT197.
(§2) A further exploratory outcome included over the treatment period to Day 5 and BCT197 systemic exposure (to Day 14) were the inflammatory biomarkers high sensitivity C-Reactive Protein (hsCRP) and fibrinogen measured in patient blood. […] This was maximal at Day 7 (FIGS. 12 and 13) coincident with the highest improvement in FEV1 (FIG. 11) in response to BCT197 in the same patient population with <2% eosinophils.

The test system of experiment [3] is lymphocytes and neutrophils. The experiment in a line: AETHER Phase 2 trial: % lymphocytes and neutrophils in blood. The class given is in vivo, human.
Excerpt: as §1
Systemic markers of adaptive and innate immunity are predictive of disease progression in COPD. […] Consequently, the effect of BCT197 to rebalance these biomarkers to a healthier phenotype, including beyond the period of systemic drug exposure, supports the potential benefit of the dosing regimens of the present invention.

In experiment [4] the test system is patients with AECOPD. The experiment in a line: AETHER Phase 2 trial: change in FEV1 from baseline to Day 7. It counts as in vivo, human. Conditions: for FEV1 change from baseline to Day 7, sub-group with blood eosinophils <2%: on top of standard of care, compared to other sub-groups and placebo, FIGS. 10, 11.
Excerpt: as §1, with “either” for “either one of”, “days). The primary endpoint was a comparison of change in forced expiratory volume in 1 second (FEV1) from baseline to day 7 within each arm of the study.” for “days).”
The trial assessed adult patients≥40 years with an acute exacerbation of COPD (as defined by increase in symptoms of cough, and/or sputum and/or breathlessness that required addition of antibiotics and or systemic corticosteroids to their regular treatment).
Patients received one of two oral dosing regimens of 3-[5-amino-4-(3-cyanobenzoyl)-pyrazol-1-yl]-N-cyclopropyl-4-methylbenzamide or matching oral placebo administered according to the dosing schedules shown in Table 2.
Inclusion criteria for the study population were: • Males/females≥40 • On regular treatment for COPD (categories C and D by 2015 GOLD guidelines) • Presence of an active exacerbation of the ongoing COPD requiring hospitalisation for treatment: • At least one moderate or severe COPD exacerbation in the preceding 12 months • Smoking history of at least 10 pack years • FEV1<65% of the predicted normal value […]
Efficacy of treatment was measured by the primary endpoint of change in FEV1 from baseline (before treatment) to Day 7. Patients with COPD and low eosinophils (determined by blood percentages or absolute counts) are considered to be poorly responsive to treatment of acute exacerbations using known treatments.

In experiment [5] the test system is fibrinogen. The experiment in a line: AETHER Phase 2 trial: fibrinogen blood concentration. It counts as in vivo, human. The following applies: high and low dose over 5 days; to Day 14; including <2% eosinophils; maximal at Day 7; FIG. 13.
Excerpt: as §1, with “either” for “either one of”, “days). The primary endpoint was a comparison of change in forced expiratory volume in 1 second (FEV1) from baseline to day 7 within each arm of the study.” for “days).”
as §2

In experiment [6] the test system is AECOPD. The following applies: single oral dose; cited from earlier work.

On to `Cc1ccc(C(=O)NC2CC2)cc1-n1ncc(C(=O)c2cccc(C#N)c2)c1N` [BCT197, 3-[5-amino-4-(3-cyanobenzoyl)-pyrazol-1-yl]-N-cyclopropyl-4-methylbenzamide], for which the “re-hospitalisation for COPD” value in experiment [1] (both high and low dose over 5 days, subsequent 6 months, high eosinophil sub group (Eos>2%), vs placebo, FIG. 3) was “able to reduce re-hospitalisation for COPD”. In experiment [1] (high dose (75/40/40 mg, days 1, 3, 5) on top of standard of care, subsequent 6 months, vs placebo, FIG. 1), the “reduction of occurrence of new exacerbations that require hospitalisation” value was 40-60%. Besides, in experiment [1] (high dose, based on numerical difference to placebo and statistical significance), the “period of greatest effect on new exacerbations that require hospitalisation” value was “between 3 and 4 months”. In addition, in experiment [1] (short course of high dose, FIG. 2), the “recurrent exacerbations that were not hospitalised” value is “reductions”. For the same compound, the “hsCRP for the subsequent 6 months versus placebo” value in experiment [2] (both high and low dose over 5 days, both high and low eosinophil sub group, FIGS. 4 and 5) is “sustained and durable reduction in hsCRP”. For the same compound, the “hsCRP from baseline versus placebo” value in experiment [2] (high and low dose over 5 days, to Day 14, including <2% eosinophils, maximal at Day 7, FIG. 12) was “dose-dependent reduction”. Also, in experiment [2] (high dose, combined Eos>2% and <2%, p<0.05 at Day 3, 7 and 10, FIG. 6), the “decrease in hsCRP to day 7 during acute treatment compared to placebo” value is reported as “significantly greater”. Besides, the “hsCRP after the acute treatment period compared to placebo” value in experiment [2] (high dose, to Day 180 without additional dosing, p value<0.05, FIG. 6) was “remains lower”. The “change from baseline in % neutrophils during acute treatment” value in experiment [3] (high and low dose vs placebo, greater than placebo with dose-dependent effect, FIG. 8) is listed as “rapid decrease in % neutrophils”. In experiment [3] (high and low dose vs placebo, to Day 14, FIG. 7), the “change from baseline in % lymphocytes over the acute treatment period” value is on record as “dose-dependent increase in lymphocytes”. Further, the “reduction in % neutrophils compared to placebo to Day 56” value in experiment [3] (without additional dosing, FIG. 9) is reported as “remains greater”. Further, the “FEV1: relative difference to standard of care, >2% eosinophil sub-population” value in experiment [4] (FIG. 10 right hand side) is listed as “much less than in the low eosinophil group”. Moreover, the “FEV1 change from baseline to Day 7, sub-group with blood eosinophils <2%” value is “substantial and consistent improvement in FEV1” in experiment [4]; “significant improvement” in experiment [4] (listed as compound A). Also, the “fibrinogen from baseline versus placebo” value in experiment [5] was “dose-dependent reduction”. Further, the “recovery of AECOPD to the stable disease state” value in experiment [6] is recorded as “accelerates the recovery to the stable disease state”.
